# Experimental data as given in ChEMBL document CHEMBL1133280, “Discovery and synthesis of a potent sulfonamide ET(B) selective antagonist” (Bioorg Med Chem Lett, 2000).
# Legend:
# [1] = biological target: T1, Endothelin-1 receptor (Rattus norvegicus, UniProt P26684); assay: Displacement of [125 I] ET-1 from rat aortic smooth muscle A7r5 cells transfected with Endothelin A receptor; assay type: cell-based
# T1 sequence (P26684 whole entry): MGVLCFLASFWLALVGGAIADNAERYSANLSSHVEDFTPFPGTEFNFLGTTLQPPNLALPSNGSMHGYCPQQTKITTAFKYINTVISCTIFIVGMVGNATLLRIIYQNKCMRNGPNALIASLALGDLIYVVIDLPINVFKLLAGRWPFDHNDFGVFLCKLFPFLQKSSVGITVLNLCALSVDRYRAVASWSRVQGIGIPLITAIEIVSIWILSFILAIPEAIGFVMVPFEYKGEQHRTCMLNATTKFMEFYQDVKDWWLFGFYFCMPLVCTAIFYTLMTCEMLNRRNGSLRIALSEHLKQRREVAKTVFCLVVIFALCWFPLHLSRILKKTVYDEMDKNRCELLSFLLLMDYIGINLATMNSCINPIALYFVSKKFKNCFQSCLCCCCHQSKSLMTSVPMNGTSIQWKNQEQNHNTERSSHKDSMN
# [2] = Ratio of IC50 of rat ETA receptor to that of porcine ETB receptor
# [3] = biological target: T2, Endothelin receptor type B (Sus scrofa, UniProt P35463); assay: Binding affinity towards displacement of [125 I] ET-3 from COS-7 cells transfected with porcine Endothelin B receptor; assay type: cell-based
# T2 sequence (P35463 whole entry): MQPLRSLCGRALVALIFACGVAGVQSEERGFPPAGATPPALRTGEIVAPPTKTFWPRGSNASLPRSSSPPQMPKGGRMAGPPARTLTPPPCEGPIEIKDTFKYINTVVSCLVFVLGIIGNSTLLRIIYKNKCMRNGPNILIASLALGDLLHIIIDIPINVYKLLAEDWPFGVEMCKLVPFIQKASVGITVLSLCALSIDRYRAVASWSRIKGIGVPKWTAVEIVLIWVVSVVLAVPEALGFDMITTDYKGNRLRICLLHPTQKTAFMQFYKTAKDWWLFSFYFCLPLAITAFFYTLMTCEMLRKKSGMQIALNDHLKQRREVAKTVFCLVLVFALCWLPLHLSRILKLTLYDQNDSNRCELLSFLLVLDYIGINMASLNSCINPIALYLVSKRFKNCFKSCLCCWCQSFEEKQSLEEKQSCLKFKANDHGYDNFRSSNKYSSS
IC50 [1] [µM],Ratio [2],IC50 [3] [µM],SMILES
28,–,–,Cc1onc(NS(=O)(=O)c2ccc(C(C)(C)C)cc2)c1C
0.63,2.6,0.24,COc1cccc(Sc2c(NS(=O)(=O)c3ccc(C(C)(C)C)cc3)noc2CCCCO)c1
0.38,0.8,0.5,COc1cccc(Sc2c(NS(=O)(=O)c3ccc(C(C)(C)C)cc3)noc2CCC=O)c1
1.7,850,0.002,COc1cccc(Sc2c(NS(=O)(=O)c3ccc(C(C)(C)C)cc3)noc2CCCC=O)c1
> 100,–,30,Cc1onc(NS(=O)(=O)c2ccc(C(C)(C)C)cc2)c1I
> 100,–,35,CSc1c(NS(=O)(=O)c2ccc(C(C)(C)C)cc2)noc1C
11,–,> 1000,Cc1onc(NS(=O)(=O)c2ccc(N)cc2)c1I
> 500,–,–,Cc1nsc(NS(=O)(=O)c2ccc(C(C)(C)C)cc2)c1C
0.8,0.3,2.8,CCc1onc(NS(=O)(=O)c2ccc(C(C)(C)C)cc2)c1Sc1cccc(OC)c1
6.3,26,0.24,COc1cccc(Sc2c(NS(=O)(=O)c3ccc(C(C)(C)C)cc3)noc2CCCC(N)=O)c1
28,–,–,Cc1snc(NS(=O)(=O)c2ccc(N)cc2)c1C
1.5,18,0.085,COc1cccc(Sc2c(NS(=O)(=O)c3ccc(C(C)(C)C)cc3)noc2CCC/C=N/O)c1
0.53,1.8,0.3,COc1cccc(Sc2c(NS(=O)(=O)c3ccc(C(C)(C)C)cc3)noc2C)c1
71,–,–,Cc1onc(NS(=O)(=O)c2ccc(N)cc2)c1Cc1ccccc1
–,8.6,0.5,COc1cccc(Sc2c(NS(=O)(=O)c3ccc(C(C)(C)C)cc3)noc2CCCC(=O)O)c1
1.4,70,0.02,COc1cccc(Sc2c(NS(=O)(=O)c3ccc(C(C)(C)C)cc3)noc2CCCCC=O)c1
1.3,3.3,0.4,COc1cccc(Sc2c(NS(=O)(=O)c3ccc(C(C)(C)C)cc3)noc2CCCC(C)=O)c1
0.77,1.8,0.43,COc1cccc(Sc2c(NS(=O)(=O)c3ccc(C(C)(C)C)cc3)noc2CCO)c1
1.3,2.5,0.52,COc1cccc(Sc2c(NS(=O)(=O)c3ccc(C(C)(C)C)cc3)noc2CCCC#N)c1
0.32,2.3,0.14,COc1cccc(Sc2c(NS(=O)(=O)c3ccc(C(C)(C)C)cc3)noc2CCCO)c1
0.4,1.3,0.31,COC(=O)CCCc1onc(NS(=O)(=O)c2ccc(C(C)(C)C)cc2)c1Sc1cccc(OC)c1
6.2,11,0.56,COc1cccc(Sc2c(NS(=O)(=O)c3ccc(C(C)(C)C)cc3)noc2CO)c1
3.4,–,–,CCc1c(NS(=O)(=O)c2ccc(N)cc2)noc1C
3.5,–,–,Cc1onc(NS(=O)(=O)c2ccc(N)cc2)c1Cl
